In patent US20090304674A1, “METHODS FOR TREATING DISEASE BY REGULATING CLL CELL SURVIVAL” (priority 2005, published 2009):
Entries after “also recorded” stand apart in the source; their conditions may differ.

Legend:
[1] = system: canonical NF-κB1 pathway in CLL B cells; experiment: Immunoblot of canonical NF-κB1 pathway activation (IκBα degradation/phosphorylation, p65 nuclear translocation) in CLL B cells; assay type: cell-based, human; conditions: rhBAFF 50 ng/ml, 24 hours, UTC pre-incubated 1 hour
Experimental: Cell lysates were prepared with RIPA buffer (10 mM Tris (pH 7.4), 150 mM NaCl, 1% Triton x 100, 1% deoxycholate, 0.1% SDS, 5 mM EDTA), containing 1 mM PMSF, 0.28 TIU/ml aprotinin, 50 μg/ml leupeptin, 1 mM benzamidine, 0.7 μg/ml pepstatin. Lysates were normalized for total protein (20 μg), subjected to SDS-PAGE (4-15% gradient gels, Bio-Rad, Hercules, Calif.) and immunoblot assay. We incubated the blots with secondary antibodies that were conjugated with horseradish peroxidase. Blots then were prepared for enhanced chemiluminescence (ECL) detection system (Amersham, Little Chalfont, Buckinghamshire, UK) and subsequent autoradiography with Super RX film (Fuji, Tokyo, Japan). The mouse mAb against APRIL (APRIL8) was from Alexis Biochemicals. The mouse mAb against inhibitor of kappa B-α (IκκBα was from Imgenex (San Diego, Calif.). The antibodies against anti-phosho-MAP kinase Erk1/2 and anti-MAP kinase Erk1/2-CT were purchased from Upstate Biotechnology. Antibodies against AKT or phospho-AKT (Ser473) were from Cell Signaling (Beverly, Mass.). Rabbit polyclonal antibodies (Mcl-1, Bcl-2, and Bax) were raised against synthetic peptides.21 Also primary antibodies included β-actin (Sigma Immunochemicals, St Louis, Mo.). Anti-p52 and anti-p65 antibodies were purchased from Upstate Biotechnology.
For fractionation experiments, cells were collected by centrifugation and washed with PBS. The cell pellet containing 5×10^6 cells was suspended in 100 μl of hypotonic buffer (50 mM Tris (pH7.4), 5 mM EDTA, 10 mM NaCl, 0.05% NP-40, 1 mM PMSF, 10 μg/ml Aprotinin, 10 μg/ml Leupeptin, 10 μg/ml Pepstatin, 10 mM β-Glycerophosphate, 1 mM Na-Vanadate, 1 mM NaF). After 10 minutes the lysate was spun and the supernatant was collected as cytoplasmic lysates. The pellet was washed 5 times in hypotonic buffer containing 0.1% NP-40. The remaining pellet was suspended in 100 μl RIPA buffer containing protease and phosphatase inhibitors. After an appropriate amount of 3× sample buffer (200 mM Tris (pH 6.8), 30 mM EDTA, 30% Glycerol, 6% SDS) was added, the sample was boiled for 10 minutes, spun for 10 minutes and the supernatant was recovered as nucleus lysates. Anti-NF kappa B p52 and p65 were purchased from Upstate Biotechnology. Anti-SP-1 was purchased from Santa Cruz Biotechnology (Santa Cruz, Calif.).
Cell lysates were prepared with radioimmunoprecipitation assay (RIPA) buffer (10 mM Tris [pH 7.4], 150 mM NaCl, 1% Triton X-100, 0.1% deoxycholate, 0.1% SDS, 5 mM EDTA), containing 1× complete protease inhibitor cocktail (Roche diagnostics), 1 mM sodium fluoride (NaF), and 1 mM sodium vanadate (Na3VO4). Lysates were normalized for total protein (25 μg) and subjected to SDS-PAGE (4-15% gradient gels, Bio-Rad, Hercules, Calif.) and immunoblot assay. We incubated the blots with secondary antibodies that were conjugated with horseradish peroxidase. Blots then were prepared for enhanced chemiluminescence (ECL) detection system (Amersham, Little Chalfont, United Kingdom) and subsequent autoradiography with Super RX film (Fuji, Tokyo, Japan).
For fractionation experiments, cells were collected by centrifugation and washed with PBS. The cell pellet containing 5×10^6 cells was suspended in 100 μl of hypotonic buffer (50 mM Tris [pH7.4], 5 mM EDTA, 10 mM NaCl, 0.05% Nonidet P40 [NP-40]), containing 1× complete protease inhibitor cocktail, 1 mM NaF, and 1 mM Na3VO4. After 10 minutes, the lysate was spun and the supernatant was collected as cytoplasmic lysates. […]

[2] = system: normal B cells of healthy donors; experiment: Viability of isolated normal B cells of healthy donors with or without rhBAFF and UTC; assay type: cell-based, human; conditions: UTC 10 μM, 48 hours
Experimental: CD19+ B cells of healthy donors were isolated from the buffy coat of blood samples collected from adult volunteers at the San Diego Blood Bank (San Diego, Calif.), as described.
Isolated blood mononuclear cells of patients with CLL were incubated with saturating amounts of Dynabeads coated with anti-CD2 or anti-CD14 mAbs (Dynal A.S. Oslo, Norway). Beadbound cells were removed with a strong magnetic field. Following depletion, less than 0.5% of cells were CD2+ or CD14+, whereas more than 99% were CD19+, as assessed via flow cytometry (data not shown). Peripheral normal CD19+ B cells of healthy donors were purified from the buffy coat of blood samples using CD19 Dynabeads and Detach A Beads (Dynal), following the manufacturer's instructions.
Freshly thawed CLL B cells were cultured at the concentration of 1×10^6/mL under various conditions. Determination of CLL cell viability in this study was based on the analysis of mitochondrial transmembrane potential (Δψm) using 3,3′-dehexyloxacarbocyamine iodine (DiOC6) and cell membrane permeability to PI, as described. […] The cells then were incubated at 37° C. for 15 minutes and analyzed within 30 minutes by flow cytometry using a FACSCalibur (Becton Dickinson). Fluorescence was recorded at 525 nm (FL-1) for DiOC6 and at 600 nm (FL-3) for PI.

CLL cells = experiment: Viability of CLL cells cultured with or without rhBAFF and inhibitors (DiOC6/PI flow cytometry); assay type: cell-based, human; conditions: UTC 10 μM, 48 hours
Experimental: Freshly thawed CLL B cells were cultured at the concentration of 1×10^6/mL under various conditions. Determination of CLL cell viability in this study was based on the analysis of mitochondrial transmembrane potential (Δψm) using 3,3′-dehexyloxacarbocyamine iodine (DiOC6) and cell membrane permeability to PI, as described. For viability assays, 100 μl of the cell culture was collected at the indicated time points and transferred to polypropylene tubes containing 100 μl of 80 nmol/l DiOC6 (Molecular Probes) and 2 μg/ml PI in FACS buffer. The cells then were incubated at 37° C. for 15 minutes and analyzed within 30 minutes by flow cytometry using a FACSCalibur (Becton Dickinson). Fluorescence was recorded at 525 nm (FL-1) for DiOC6 and at 600 nm (FL-3) for PI.

IKK-2 (IKKβ) = molecular target: T1, IKK-2 (IKKβ) (Homo sapiens, UniProt O14920); conditions: reported by Podolin and colleagues, cited from earlier work
T1 sequence (O14920 1-756): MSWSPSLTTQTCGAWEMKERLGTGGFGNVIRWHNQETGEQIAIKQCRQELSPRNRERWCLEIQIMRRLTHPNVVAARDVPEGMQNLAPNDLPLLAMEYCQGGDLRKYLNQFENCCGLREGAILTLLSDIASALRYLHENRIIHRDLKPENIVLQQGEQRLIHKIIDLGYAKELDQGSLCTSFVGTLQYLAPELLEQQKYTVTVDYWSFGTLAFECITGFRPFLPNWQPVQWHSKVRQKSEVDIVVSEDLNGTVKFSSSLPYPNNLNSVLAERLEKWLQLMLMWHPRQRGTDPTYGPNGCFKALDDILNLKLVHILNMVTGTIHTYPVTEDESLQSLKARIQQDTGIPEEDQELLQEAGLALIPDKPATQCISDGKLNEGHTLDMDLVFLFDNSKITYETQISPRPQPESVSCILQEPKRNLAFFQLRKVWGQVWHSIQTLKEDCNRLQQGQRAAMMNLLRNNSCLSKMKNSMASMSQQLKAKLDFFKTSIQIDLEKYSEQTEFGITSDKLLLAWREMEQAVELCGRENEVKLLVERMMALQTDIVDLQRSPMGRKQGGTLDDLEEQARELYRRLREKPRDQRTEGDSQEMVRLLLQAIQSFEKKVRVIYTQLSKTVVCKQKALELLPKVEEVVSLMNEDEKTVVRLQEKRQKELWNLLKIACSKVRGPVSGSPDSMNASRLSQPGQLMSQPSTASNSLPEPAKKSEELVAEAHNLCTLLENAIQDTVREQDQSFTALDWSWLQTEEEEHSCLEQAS

NC(=O)Nc1sc(-c2ccc(F)cc2)cc1C(N)=O [UTC, 5-(4-fluorophenyl)-2-ureido-thiophene-3 carboxylic acid amide]
inhibition of BAFF-induced translocation of p65 to the nucleus ([1]; anti-BR3 10 μg/ml): inhibited BAFF induced nuclear translocation of p65 | inhibition of rhBAFF-induced phosphorylation of IκBα ([1]; anti-BR3 or BR3-Fc 10 μg/ml): inhibited phosphorylation of IκBα | survival/viability of isolated normal B cells cultured without rhBAFF ([2]; 8 donors): did not have any effect on survival of isolated normal B cells; also recorded: no significant difference | effect on pro-survival effect of exogenous rhBAFF on normal B cells ([2]; rhBAFF 50 ng/ml): could partially block the pro-survival effect of exogenous rhBAFF | viability of CLL cells versus medium alone (CLL cells; 8 patients): significantly lower than that of CLL cells cultured with medium alone | effect on rhBAFF-enhanced survival/viability of CLL cells (CLL cells; rhBAFF 50 ng/ml, anti-BR3 or BR3-Fc 10 μg/ml): significantly inhibited the capacity of rhBAFF to support CLL cell survival | selectivity for IKK-2 versus the other ten kinases (IKK-2 (IKKβ); p38α, p38β, p38γ, p38δ, MAPKAPK2, MKK1, MAPK2, COX-1, COX-2, JNK1): more than 550 fold | selectivity for IKK-2 versus IKK-1 (IKK-2 (IKKβ)): 22 fold | selectivity for IKK-2 versus JNK3 (IKK-2 (IKKβ)): 200 fold
